Test results reported in ChEMBL document CHEMBL1158696, “Bioactive asterosaponins from the starfish Culcita novaeguineae” (J Nat Prod, 2005).

Key:
[1] = test system: Bel-7402; assay: Cytotoxicity against human Bel7402 cells after 72 hrs by SRB assay; format: functional, cell-based; details: Bel-7402, 72 h
[2] = test system: K562; assay: Cytotoxicity against human K562 cells after 72 hrs by MTT assay; format: functional, cell-based; details: K562, 72 h

| SMILES | IC50 [1] [µg/mL] | IC50 [2] [µg/mL] |
| --- | --- | --- |
| CC(C)[C@H](C)[C@@H]1O[C@H]1[C@](C)(O)[C@H]1CC[C@H]2[C@@H]3C[C@H](O[C@@H]4O[C@H](CO)[C@@H](O)[C@H](O[C@@H]5O[C@H](C)[C@@H](O[C@@H]6OC[C@H](O)[C@H](O)[C@H]6O[C@@H]6O[C@H](C)[C@H](O)[C@H](O)[C@H]6O)[C@H](O)[C@H]5O[C@@H]5O[C@H](C)[C@H](O)[C@H](O)[C@H]5O)[C@H]4O)[C@H]4C[C@@H](OS(=O)(=O)[O-])CC[C@]4(C)C3=CC[C@]12C.[Na+] [NOVAEGUINOSIDE II] | 4.1 | 4.9 |
| CC(C)[C@H](C)[C@@H]1O[C@H]1[C@](C)(O)[C@H]1CC[C@H]2[C@@H]3C[C@H](O[C@@H]4O[C@H](CO)[C@@H](O)[C@H](O[C@@H]5O[C@H](C)[C@@H](O[C@@H]6O[C@H](C)[C@H](O)[C@H](O)[C@H]6O[C@@H]6O[C@H](C)[C@H](O)[C@H](O)[C@H]6O)[C@H](O)[C@H]5O[C@@H]5O[C@H](C)[C@H](O)[C@H](O)[C@H]5O)[C@H]4O)[C@H]4C[C@@H](OS(=O)(=O)[O-])CC[C@]4(C)C3=CC[C@]12C.[Na+] [NOVAEGUINOSIDE I] | 9.2 | 8.6 |
| CC(C)CC(=O)C[C@](C)(O)[C@H]1CC[C@H]2[C@@H]3C[C@H](O[C@@H]4O[C@H](C)[C@@H](O)[C@H](O[C@@H]5OC[C@@H](O[C@@H]6O[C@H](C)[C@H](O)[C@H](O)[C@H]6O[C@@H]6O[C@H](C)[C@H](O)[C@H](O)[C@H]6O)[C@H](O)[C@H]5O[C@@H]5O[C@H](C)[C@H](O)[C@H](O)[C@H]5O)[C@H]4O)[C@H]4C[C@@H](OS(=O)(=O)[O-])CC[C@]4(C)C3=CC[C@@]21C.[Na+] [regularoside B] | 14.5 | 17.4 |
